Consider 26 compounds from patent US9951063B2, “8-(piperazin-1-yl)-1,2,3,4-tetrahydro-isoquinoline derivatives” (IDORSIA PHARMACEUTICALS LTD, priority 2014, dated 2018).

This experiment has as its target human CXCR3A (Homo sapiens (Human), UniProt P49682). In words: FLIPR assay (inhibition of CXCL10-induced calcium signal). The settings on record: engineered CHO-K1 cells expressing human CXCR3A coupled to Galpha(16); Fluo-4-AM; CXCL10 agonist 20 nM; mean values where determined several times. Format: cell-based. The gist of the method: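 CHO-K1 cells expressing human CXCR3A coupled to Gα16 were loaded with Fluo-4-AM for 1 h in HBSS/20 mM Hepes pH 7.4 with probenecid. Compound was added, then CXCL10 (20 nM as dispensed). Baseline-subtracted peak fluorescence gave inhibition curves and IC50, averaged over repeats.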

pIC50: −log10 of the molar value.

Chain of human CXCR3A (P49682 whole entry): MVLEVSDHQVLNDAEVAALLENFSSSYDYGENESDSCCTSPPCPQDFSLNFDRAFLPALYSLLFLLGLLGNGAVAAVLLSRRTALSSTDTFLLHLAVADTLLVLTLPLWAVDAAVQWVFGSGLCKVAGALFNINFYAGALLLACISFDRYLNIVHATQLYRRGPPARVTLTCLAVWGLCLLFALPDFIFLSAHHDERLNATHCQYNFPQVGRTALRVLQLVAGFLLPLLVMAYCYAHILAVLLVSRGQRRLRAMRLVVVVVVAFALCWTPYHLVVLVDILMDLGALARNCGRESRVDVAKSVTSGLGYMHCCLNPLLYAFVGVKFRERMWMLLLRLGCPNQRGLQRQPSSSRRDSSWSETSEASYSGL

What is called pIC50 is the negative decadic logarithm of the IC50, by convention in mol/L. Consider `COc1nc(OC)nc(N2CCc3cccc(N4CCN(C(=O)Cn5cnc6cccnc65)[C@H](C)C4)c3C2)n1` [Example 121, 1-{(R)-4-[2-(4,6-Dimethoxy-[1,3,5]triazin-2-yl)-1,2,3,4-tetrahydro-isoquinolin-8-yl]-2-methyl-piperazin-1-yl}-2-imidazo[4,5-b]pyridin-3-yl-ethanone], for which the pIC50 is 8.47.
On to `COc1nccc(N2CCc3cccc(N4CCN(C(=O)Cn5cnc6cccnc65)[C@H](C)C4)c3C2)n1` [Example 122, 2-Imidazo[4,5-b]pyridin-3-yl-1-{(R)-4-[2-(2-methoxy-pyrimidin-4-yl)-1,2,3,4-tetrahydro-isoquinolin-8-yl]-2-methyl-piperazin-1-yl}-ethanone], for which the pIC50 is 7.55.
On to `CCOc1ncc(N2CCc3cccc(N4CCN(C(=O)Cn5cnc6cccnc65)[C@H](C)C4)c3C2)cn1` [Example 123, 1-{(R)-4-[2-(2-Ethoxy-pyrimidin-5-yl)-1,2,3,4-tetrahydro-isoquinolin-8-yl]-2-methyl-piperazin-1-yl}-2-imidazo[4,5-b]pyridin-3-yl-ethanone], for which the pIC50 is 8.33.
The value for `C[C@@H]1CN(c2cccc3c2CN(c2nc(-c4ccccc4)cs2)CC3)CCN1C(=O)Cn1cnc2cccnc21` [Example 124, 2-Imidazo[4,5-b]pyridin-3-yl-1-{(R)-2-methyl-4-[2-(4-phenyl-thiazol-2-yl)-1,2,3,4-tetrahydro-isoquinolin-8-yl]-piperazin-1-yl}-ethanone] was 7.46; that for `Cc1nc(C)n(CC(=O)N2CCN(c3cccc4c3CN(c3cnc(C(F)(F)F)nc3)CC4)C[C@H]2C)n1` [Example 125, 2-(3,5-Dimethyl-[1,2,4]triazol-1-yl)-1-{(R)-2-methyl-4-[2-(2-trifluoromethyl-pyrimidin-5-yl)-1,2,3,4-tetrahydro-isoquinolin-8-yl]-piperazin-1-yl}-ethanone] was 7.32.
Consider `Cc1nc(C)n(CC(=O)N2CCN(c3cccc4c3CN(c3cnc(C5CC5)nc3)CC4)C[C@H]2C)n1` [Example 126, 1-{(R)-4-[2-(2-Cyclopropyl-pyrimidin-5-yl)-1,2,3,4-tetrahydro-isoquinolin-8-yl]-2-methyl-piperazin-1-yl}-2-(3,5-dimethyl-[1,2,4]triazol-1-yl)-ethanone], for which the pIC50 was 8.40.
With `CCOc1ncc(N2CCc3cccc(N4CCN(C(=O)Cn5nc(C)nc5C)[C@H](C)C4)c3C2)cn1` [Example 127, 2-(3,5-Dimethyl-[1,2,4]triazol-1-yl)-1-{(R)-4-[2-(2-ethoxy-pyrimidin-5-yl)-1,2,3,4-tetrahydro-isoquinolin-8-yl]-2-methyl-piperazin-1-yl}-ethanone], the pIC50 was 7.48.
The value for `CCOc1ncc(N2CCc3cccc(N4CCN(C(=O)Cn5nc(C)cc5C)[C@H](C)C4)c3C2)cn1` [Example 128, 2-(3,5-Dimethyl-pyrazol-1-yl)-1-{(R)-4-[2-(2-ethoxy-pyrimidin-5-yl)-1,2,3,4-tetrahydro-isoquinolin-8-yl]-2-methyl-piperazin-1-yl}-ethanone] was 8.10; that for `CCOc1ncc(N2CCc3c(F)ccc(N4CCN(C(=O)Cn5cnc6cccnc65)[C@H](C)C4)c3C2)cn1` [Example 129, 1-{(R)-4-[2-(2-Ethoxy-pyrimidin-5-yl)-5-fluoro-1,2,3,4-tetrahydro-isoquinolin-8-yl]-2-methyl-piperazin-1-yl}-2-imidazo[4,5-b]pyridin-3-yl-ethanone] was 8.51; that for `CCOc1ncc(N2CCc3c(F)ccc(N4CCN(C(=O)Cn5nc(C)cc5C)[C@H](C)C4)c3C2)cn1` [Example 130, 2-(3,5-Dimethyl-pyrazol-1-yl)-1-{(R)-4-[2-(2-ethoxy-pyrimidin-5-yl)-5-fluoro-1,2,3,4-tetrahydro-isoquinolin-8-yl]-2-methyl-piperazin-1-yl}-ethanone] was 8.24.
Consider `CCOc1ncc(N2CCc3c(F)ccc(N4CCN(C(=O)Cn5nc(C)nc5C)[C@H](C)C4)c3C2)cn1` [Example 131, 2-(3,5-Dimethyl-[1,2,4]triazol-1-yl)-1-{(R)-4-[2-(2-ethoxy-pyrimidin-5-yl)-5-fluoro-1,2,3,4-tetrahydro-isoquinolin-8-yl]-2-methyl-piperazin-1-yl}-ethanone], for which the negative logarithm of the IC50 (pIC50) is 7.61.
On to `Cc1nc(C)n(CC(=O)N2CCN(c3ccc(F)c4c3CN(c3cnc(C(F)(F)F)nc3)CC4)C[C@H]2C)n1` [Example 132, 2-(3,5-Dimethyl-[1,2,4]triazol-1-yl)-1-{(R)-4-[5-fluoro-2-(2-trifluoromethyl-pyrimidin-5-yl)-1,2,3,4-tetrahydro-isoquinolin-8-yl]-2-methyl-piperazin-1-yl}-ethanone], for which the pIC50 is 7.23.
Take `Cc1nc(C)n(CC(=O)N2CCN(c3ccc(F)c4c3CN(c3cnc(C5CC5)nc3)CC4)C[C@H]2C)n1` [Example 133, 1-{(R)-4-[2-(2-Cyclopropyl-pyrimidin-5-yl)-5-fluoro-1,2,3,4-tetrahydro-isoquinolin-8-yl]-2-methyl-piperazin-1-yl}-2-(3,5-dimethyl-[1,2,4]triazol-1-yl)-ethanone]: the negative-log IC50 (pIC50) was 8.27.
With `CCOc1ncc(N2CCc3cc(C(F)(F)F)cc(N4CCN(C(=O)Cn5cnc6cccnc65)[C@H](C)C4)c3C2)cn1` [Example 134, 1-{(R)-4-[2-(2-Ethoxy-pyrimidin-5-yl)-6-trifluoromethyl-1,2,3,4-tetrahydro-isoquinolin-8-yl]-2-methyl-piperazin-1-yl}-2-imidazo[4,5-b]pyridin-3-yl-ethanone], the pIC50 is 7.28.
For `C[C@@H]1CN(c2cccc3c2CN(C(=O)OCc2ccccc2)CC3)CCN1C(=O)Cn1cccn1` [Example 135, 8-[(R)-3-Methyl-4-(2-pyrazol-1-yl-acetyl)-piperazin-1-yl]-3,4-dihydro-1H-isoquinoline-2-carboxylic acid benzyl ester], the negative-log IC50 (pIC50) is 6.94.
On to `Cc1nc(C)n(CC(=O)N2CCN(c3cccc4c3CN(C(=O)OCc3ccccc3)CC4)C[C@H]2C)n1` [Example 136, 8-{(R)-4-[2-(3,5-Dimethyl-[1,2,4]triazol-1-yl)-acetyl]-3-methyl-piperazin-1-yl}-3,4-dihydro-1H-isoquinoline-2-carboxylic acid benzyl ester], for which the negative-log IC50 (pIC50) is 7.48.
On to `O=C(Cn1cnc2cccnc21)N1CCN(c2cccc3c2CN(C(=O)OCc2ccccc2)CC3)CC1` [Example 137, 8-[4-(2-Imidazo[4,5-b]pyridin-3-yl-acetyl)-piperazin-1-yl]-3,4-dihydro-1H-isoquinoline-2-carboxylic acid benzyl ester], for which the pIC50 was 8.04.
In the case of `O=C(Cn1ccc2cccnc21)N1CCN(c2cccc3c2CN(C(=O)OCc2ccccc2)CC3)CC1` [Example 138, 8-[4-(2-Pyrrolo[2,3-b]pyridin-1-yl-acetyl)-piperazin-1-yl]-3,4-dihydro-1H-isoquinoline-2-carboxylic acid benzyl ester], the negative logarithm of the IC50 (pIC50) was 7.91.
On to `Cn1c(=O)n(CC(=O)N2CCN(c3cccc4c3CN(C(=O)OCc3ccccc3)CC4)CC2)c2ccccc21` [Example 139, 8-{4-[2-(3-Methyl-2-oxo-2,3-dihydro-benzoimidazol-1-yl)-acetyl]-piperazin-1-yl}-3,4-dihydro-1H-isoquinoline-2-carboxylic acid benzyl ester], for which the negative-log IC50 (pIC50) was 7.66.
As for `Cn1c(=O)n(CC(=O)N2CCN(c3cccc4c3CN(C(=O)c3ccccc3)CC4)CC2)c2ccccc21` [Example 140, 1-{2-[4-(2-Benzoyl-1,2,3,4-tetrahydro-isoquinolin-8-yl)-piperazin-1-yl]-2-oxo-ethyl}-3-methyl-1,3-dihydro-benzoimidazol-2-one], the pIC50 was 7.29.
Turning to `Cn1c(=O)n(CC(=O)N2CCN(c3cccc4c3CN(C(=O)Cc3ccccc3)CC4)CC2)c2ccccc21` [Example 141, 1-Methyl-3-{2-oxo-2-[4-(2-phenylacetyl-1,2,3,4-tetrahydro-isoquinolin-8-yl)-piperazin-1-yl]-ethyl}-1,3-dihydro-benzoimidazol-2-one], the negative-log IC50 (pIC50) was 6.72.
On to `O=C(Cn1cnc2cccnc21)N1CCN(c2cccc3c2CN(S(=O)(=O)Cc2ccccc2)CC3)CC1` [Example 142, 2-Imidazo[4,5-b]pyridin-3-yl-1-[4-(2-phenylmethanesulfonyl-1,2,3,4-tetrahydro-isoquinolin-8-yl)-piperazin-1-yl]-ethanone], for which the pIC50 is 7.18.
In the case of `C[C@@H]1CN(c2cccc3c2CN(Cc2ccc(Cl)cc2)CC3)CCN1C(=O)Cn1cnc2cccnc21` [Example 143, 1-{(R)-4-[2-(4-Chloro-benzyl)-1,2,3,4-tetrahydro-isoquinolin-8-yl]-2-methyl-piperazin-1-yl}-2-imidazo[4,5-b]pyridin-3-yl-ethanone], the negative logarithm of the IC50 (pIC50) is 6.33.
As to `C[C@@H]1CN(c2ccc(Br)c3c2CN(C(=O)OCc2ccccc2)CC3)CCN1C(=O)Cn1cnc2cccnc21` [Example 144, 5-Bromo-8-[(R)-4-(2-imidazo[4,5-b]pyridin-3-yl-acetyl)-3-methyl-piperazin-1-yl]-3,4-dihydro-1H-isoquinoline-2-carboxylic acid benzyl ester], the pIC50 is 7.07.
As to `C[C@@H]1CN(c2ccc(C(F)(F)F)c3c2CN(C(=O)OCc2ccccc2)CC3)CCN1C(=O)Cn1cnc2cccnc21` [Example 145, 8-[(R)-4-(2-Imidazo[4,5-b]pyridin-3-yl-acetyl)-3-methyl-piperazin-1-yl]-5-trifluoromethyl-3,4-dihydro-1H-isoquinoline-2-carboxylic acid benzyl ester], the negative logarithm of the IC50 (pIC50) was 7.59.
Take `C[C@@H]1CN(c2ccc(C#N)c3c2CN(C(=O)OCc2ccccc2)CC3)CCN1C(=O)Cn1cnc2cccnc21` [Example 146, 5-Cyano-8-[(R)-4-(2-imidazo[4,5-b]pyridin-3-yl-acetyl)-3-methyl-piperazin-1-yl]-3,4-dihydro-1H-isoquinoline-2-carboxylic acid benzyl ester]: the pIC50 was 7.81.
